Test results: US9833497B2, “Human originated EGF domain proteins and use of the same” (CHENGDU SOURCEBIO LIMITED-LIABILITY COMPANY, priority 2013, dated 2017)

Tested on: E. coli BL21
Experiment: MIC against Gram-negative bacteria: E. coli BL21
Format: cell-based
Conditions: 10 h cultivation at 37° C., 5×10^5 CFU/mL, two-fold serial dilution
Summary of the method: (§1)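 MIC = lowest concentration of recombinant protein showing no growth. Test proteins: purified human-derived EGF domain proteins, two-fold dilution series, three wells per concentration; inoculum 5×10^5 CFU/mL in LB; incubation 37° C with shaking at 175 rpm.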

Substance | MIC E. coli BL21 [µg/mL]
PRT1167 (NINDCESNPCRNGGTCIDGVNSYKCICSDGWEGAYCE; listed as Homo sapiens) | 25
PRT1147 (ELDACSFKPCKNNGSCINKRENWDEQAYECVCHPPFTGKNCS; listed as Homo sapiens) | 12.5
PRT1085 (HARKCNETAKSYCVNGGVCYYIEGINQLSCKCPNGFFGQRCL; listed as Homo sapiens) | 12.5

Same assay, conditions: E. coli BL21; 5×10^5 CFU/mL; 10 h cultivation at 37° C.

Substance | MIC against E. coli BL21 [µg/mL]
PRT1364 (GELKCPNGCSGHGRCVNGQCVCDEGYTGEDCS; listed as Homo sapiens) | 12.5

Tested on: Citrobacter diversus
Experiment: MIC against Gram-negative bacteria: Citrobacter diversus
Format: cell-based
Conditions: 10 h cultivation at 37° C., 5×10^5 CFU/mL, two-fold serial dilution
Summary of the method: as §1

Substance | MIC C. diversus [µg/mL]
PRT1167 (NINDCESNPCRNGGTCIDGVNSYKCICSDGWEGAYCE; listed as Homo sapiens) | 12.5
PRT1147 (ELDACSFKPCKNNGSCINKRENWDEQAYECVCHPPFTGKNCS; listed as Homo sapiens) | 25
PRT1085 (HARKCNETAKSYCVNGGVCYYIEGINQLSCKCPNGFFGQRCL; listed as Homo sapiens) | 12.5

Same assay, conditions: Citrobacter diversus; 5×10^5 CFU/mL; 10 h cultivation at 37° C.

Substance | MIC against C. diversus [µg/mL]
PRT1364 (GELKCPNGCSGHGRCVNGQCVCDEGYTGEDCS; listed as Homo sapiens) | 12.5

Tested on: Klebsiella pneumonia
Experiment: MIC against Gram-negative bacteria: Klebsiella pneumonia
Format: cell-based
Conditions: 10 h cultivation at 37° C., 5×10^5 CFU/mL, two-fold serial dilution
Summary of the method: as §1

Substance | MIC K. pneumonia [µg/mL]
PRT1167 (NINDCESNPCRNGGTCIDGVNSYKCICSDGWEGAYCE; listed as Homo sapiens) | 25
PRT1147 (ELDACSFKPCKNNGSCINKRENWDEQAYECVCHPPFTGKNCS; listed as Homo sapiens) | 12.5
PRT1085 (HARKCNETAKSYCVNGGVCYYIEGINQLSCKCPNGFFGQRCL; listed as Homo sapiens) | 50

Same assay, conditions: Klebsiella pneumonia; 5×10^5 CFU/mL; 10 h cultivation at 37° C.

Substance | MIC against K. pneumonia [µg/mL]
PRT1364 (GELKCPNGCSGHGRCVNGQCVCDEGYTGEDCS; listed as Homo sapiens) | 50

Tested on: Pseudomonas aeruginosa
Experiment: MIC against Gram-negative bacteria: Pseudomonas aeruginosa
Format: cell-based
Conditions: 10 h cultivation at 37° C., 5×10^5 CFU/mL, two-fold serial dilution
Summary of the method: as §1

Substance | MIC P. aeruginosa [µg/mL]
PRT1167 (NINDCESNPCRNGGTCIDGVNSYKCICSDGWEGAYCE; listed as Homo sapiens) | 12.5
PRT1147 (ELDACSFKPCKNNGSCINKRENWDEQAYECVCHPPFTGKNCS; listed as Homo sapiens) | 50
PRT1085 (HARKCNETAKSYCVNGGVCYYIEGINQLSCKCPNGFFGQRCL; listed as Homo sapiens) | 12.5

Same assay, conditions: Pseudomonas aeruginosa; 5×10^5 CFU/mL; 10 h cultivation at 37° C.

Substance | MIC against P. aeruginosa [µg/mL]
PRT1364 (GELKCPNGCSGHGRCVNGQCVCDEGYTGEDCS; listed as Homo sapiens) | 25

Tested on: Serratia marcescens
Experiment: MIC against Gram-negative bacteria: Serratia marcescens
Format: cell-based
Conditions: 10 h cultivation at 37° C., 5×10^5 CFU/mL, two-fold serial dilution
Summary of the method: as §1

Substance | MIC S. marcescens [µg/mL]
PRT1167 (NINDCESNPCRNGGTCIDGVNSYKCICSDGWEGAYCE; listed as Homo sapiens) | 12.5
PRT1147 (ELDACSFKPCKNNGSCINKRENWDEQAYECVCHPPFTGKNCS; listed as Homo sapiens) | 25
PRT1085 (HARKCNETAKSYCVNGGVCYYIEGINQLSCKCPNGFFGQRCL; listed as Homo sapiens) | 25

Same assay, conditions: Serratia marcescens; 5×10^5 CFU/mL; 10 h cultivation at 37° C.

Substance | MIC against S. marcescens [µg/mL]
PRT1364 (GELKCPNGCSGHGRCVNGQCVCDEGYTGEDCS; listed as Homo sapiens) | 12.5

Tested on: E. coli DH5α
Experiment: Antibacterial activity: MIC and growth curve against E. coli DH5α in 96-well plate
Format: cell-based
Conditions: minimal inhibitory concentration against E. coli DH5α; 96-well plate, 5×10^5 CFU/mL, 37° C., judged after 8 h
Summary of the method: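 MIC taken as lowest protein level with no bacterial growth, tracked by A600 every 30 min during 37 °C, 175 rpm culture. Two-fold protein series 50-12.5 μg/mL final, triplicate wells, against 5×10^5 CFU/mL of LB-washed mid-log cells.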

Substance | MIC [µg/mL]
PRT1364 (GELKCPNGCSGHGRCVNGQCVCDEGYTGEDCS; listed as Homo sapiens) | 25
PRT1167 (NINDCESNPCRNGGTCIDGVNSYKCICSDGWEGAYCE; listed as Homo sapiens) | 50
PRT1147 (ELDACSFKPCKNNGSCINKRENWDEQAYECVCHPPFTGKNCS; listed as Homo sapiens) | 50
PRT1085 (HARKCNETAKSYCVNGGVCYYIEGINQLSCKCPNGFFGQRCL; listed as Homo sapiens) | 25

Tested on: Moraxella catarrhalis
Experiment: MIC against Gram-negative bacteria: Moraxella catarrhalis
Format: cell-based
Conditions: 10 h cultivation at 37° C., 5×10^5 CFU/mL, two-fold serial dilution
Summary of the method: as §1

Substance | MIC M. catarrhalis [µg/mL]
PRT1167 (NINDCESNPCRNGGTCIDGVNSYKCICSDGWEGAYCE; listed as Homo sapiens) | 25
PRT1147 (ELDACSFKPCKNNGSCINKRENWDEQAYECVCHPPFTGKNCS; listed as Homo sapiens) | 12.5
PRT1085 (HARKCNETAKSYCVNGGVCYYIEGINQLSCKCPNGFFGQRCL; listed as Homo sapiens) | 50

Same assay, conditions: Moraxella catarrhalis; 5×10^5 CFU/mL; 10 h cultivation at 37° C.

Substance | MIC against M. catarrhalis [µg/mL]
PRT1364 (GELKCPNGCSGHGRCVNGQCVCDEGYTGEDCS; listed as Homo sapiens) | 12.5

Tested on: Aeromonas hydrophila
Experiment: MIC against Gram-negative bacteria: Aeromonas hydrophila
Format: cell-based
Conditions: 10 h cultivation at 37° C., 5×10^5 CFU/mL, two-fold serial dilution
Summary of the method: as §1

Substance | MIC A. hydrophila [µg/mL]
PRT1167 (NINDCESNPCRNGGTCIDGVNSYKCICSDGWEGAYCE; listed as Homo sapiens) | 25
PRT1147 (ELDACSFKPCKNNGSCINKRENWDEQAYECVCHPPFTGKNCS; listed as Homo sapiens) | 25
PRT1085 (HARKCNETAKSYCVNGGVCYYIEGINQLSCKCPNGFFGQRCL; listed as Homo sapiens) | 50

Same assay, conditions: Aeromonas hydrophila; 5×10^5 CFU/mL; 10 h cultivation at 37° C.

Substance | MIC against A. hydrophila [µg/mL]
PRT1364 (GELKCPNGCSGHGRCVNGQCVCDEGYTGEDCS; listed as Homo sapiens) | 25

Tested on: Enterobacter cloacae
Experiment: MIC against Gram-negative bacteria: Enterobacter cloacae
Format: cell-based
Conditions: 10 h cultivation at 37° C., 5×10^5 CFU/mL, two-fold serial dilution
Summary of the method: as §1

Substance | MIC E. cloacae [µg/mL]
PRT1167 (NINDCESNPCRNGGTCIDGVNSYKCICSDGWEGAYCE; listed as Homo sapiens) | 50
PRT1147 (ELDACSFKPCKNNGSCINKRENWDEQAYECVCHPPFTGKNCS; listed as Homo sapiens) | 50
PRT1085 (HARKCNETAKSYCVNGGVCYYIEGINQLSCKCPNGFFGQRCL; listed as Homo sapiens) | 12.5

Same assay, conditions: Enterobacter cloacae; 5×10^5 CFU/mL; 10 h cultivation at 37° C.

Substance | MIC against E. cloacae [µg/mL]
PRT1364 (GELKCPNGCSGHGRCVNGQCVCDEGYTGEDCS; listed as Homo sapiens) | 25

Tested on: Proteus vulgaris
Experiment: MIC against Gram-negative bacteria: Proteus vulgaris
Format: cell-based
Conditions: 10 h cultivation at 37° C., 5×10^5 CFU/mL, two-fold serial dilution
Summary of the method: as §1

Substance | MIC P. vulgaris [µg/mL]
PRT1167 (NINDCESNPCRNGGTCIDGVNSYKCICSDGWEGAYCE; listed as Homo sapiens) | 25
PRT1147 (ELDACSFKPCKNNGSCINKRENWDEQAYECVCHPPFTGKNCS; listed as Homo sapiens) | 50
PRT1085 (HARKCNETAKSYCVNGGVCYYIEGINQLSCKCPNGFFGQRCL; listed as Homo sapiens) | 50

Same assay, conditions: Proteus vulgaris; 5×10^5 CFU/mL; 10 h cultivation at 37° C.

Substance | MIC against P. vulgaris [µg/mL]
PRT1364 (GELKCPNGCSGHGRCVNGQCVCDEGYTGEDCS; listed as Homo sapiens) | 12.5

Tested on: Proteus mirabilis
Experiment: MIC against Gram-negative bacteria: Proteus mirabilis
Format: cell-based
Conditions: 10 h cultivation at 37° C., 5×10^5 CFU/mL, two-fold serial dilution
Summary of the method: as §1

Substance | MIC P. mirabilis [µg/mL]
PRT1167 (NINDCESNPCRNGGTCIDGVNSYKCICSDGWEGAYCE; listed as Homo sapiens) | 50
PRT1147 (ELDACSFKPCKNNGSCINKRENWDEQAYECVCHPPFTGKNCS; listed as Homo sapiens) | 25
PRT1085 (HARKCNETAKSYCVNGGVCYYIEGINQLSCKCPNGFFGQRCL; listed as Homo sapiens) | 12.5

Same assay, conditions: Proteus mirabilis; 5×10^5 CFU/mL; 10 h cultivation at 37° C.

Substance | MIC against P. mirabilis [µg/mL]
PRT1364 (GELKCPNGCSGHGRCVNGQCVCDEGYTGEDCS; listed as Homo sapiens) | 12.5
